From patent publication US8778931B2, “Substituted hydroxamic acids and uses thereof” (Millennium Pharmaceuticals, Inc., priority 2010, dated 2014)

What was measured:
[1] = Intrinsic Clearance in Microsomes (rat); type: in vitro ADME; details: liver microsomes, pH 7.4, 2 μM test compound, read-out: In Vitro Microsomal Intrinsic Clearance, Rat CL int (converted)
Procedure: (§1) The following reagents and stock solutions are required for determination of microsomal clearance.
(§2) • 1. 0.1 M potassium phosphate buffer, pH 7.4: • Stock A (1.0 M): 136.5 g of monobasic potassium phosphate (Sigma #P5379) in 1 L of nanopure water. • Stock B (1.0 M): 174.2 g of dibasic potassium phosphate (Sigma #P8281) in 1 L of nanopure water. • Mix 40.5 mL of stock B+9.5 mL of stock A, adjust pH with monobasic potassium phosphate, qs to 500 mL with nanopure water to give 0.1M potassium phosphate buffer, pH 7.4. • 2. […] NADPH: β-nicotinamide adenine dinucleotide phosphate, reduced form (Sigma #N1630) • 4. UDPGA: Uridine 5′-Diphosphote Glucuronic Acid, Triamnonium salt (Sigma #U-5625) • 5. Alamethicin (Sigma #A-4665-25) • 6. MgCl2: Magnesium chloride (Sigma #M8266) • 7. DMSO: Dimethyl sulfoxide (Sigma #D4540) • 8. 7EC: 7-Ethoxycoumarine (Sigma #E1379), positive control. • 9. Carbutamide (Aldrich cat #38157-8), internal standard. Stock Solutions: • 1. 10 mM stock solution of test compound in DMSO • 200 μM test solution of test compound: 10 μL of 10 mM test compound stock solution+490 μL of 75% ACN/water • 2. 10 mM stock solution of 7-Ethoxycoumarin in DMSO (positive control) • 200 μM test solution of 7-Ethoxycoumarine: 10 μL of 10 mM 7EC stock solution+490 μL of 75% ACN/water. • 3. 10 mM carbutamide stock (internal standard): Dissolve 2.71 mg of carbutimide in 1 mL DMSO. • 1 μM carbutamide solution: 100 μL of 10 mM stock solution in • 1 L of acetonitrile, store at 4° C. • 4. 3 mM MgCl2 in 0.1 M K-phosphate buffer: • Dissolve 28.5 mg of anhydrous MgCl2 in 100 mL of 0.1 M K-phosphate buffer, pH 7.4. • 5. 4× Stock Solution of Cofactors Mixture
(§3) 16 mM NADPH in 0.1 M K-phosphate buffer, pH 7.4 containing MgCl2.
(§4) 20 mM UDPGA in 0.1 M K-phosphate buffer, pH 7.4 containing MgCl2
(§5) Aliquot equal volume of stock solution of NADPH and UDPGA to make the final stock solution of cofactor mixture as follows:
(§6) 10 mM UDPGA • 6. Add 1.25 mL of methanol directly to the bottle of alamethicin. Invert 10 times to dissolve the alamethicin. This yields a 20 mg/ml solution of alamethicin. […]

[2] = Intrinsic Clearance in Microsomes (human); type: in vitro ADME; details: liver microsomes, pH 7.4, 2 μM test compound, read-out: In Vitro Microsomal Intrinsic Clearance, Human CL int
Procedure: as §1, §2, §3, §4, §5, §6

purified human HDAC6 = molecular target: T1, purified human HDAC6 (Homo sapiens, UniProt Q9UBN7); assay: HDAC6 Enzyme Assay; type: biochemical; details: HDAC6, 0.37 μM concentration; read-out: Percentage Inhibition (%)
T1 construct: purchased BPS Bioscience 5006
T1 sequence (Q9UBN7 1-1215): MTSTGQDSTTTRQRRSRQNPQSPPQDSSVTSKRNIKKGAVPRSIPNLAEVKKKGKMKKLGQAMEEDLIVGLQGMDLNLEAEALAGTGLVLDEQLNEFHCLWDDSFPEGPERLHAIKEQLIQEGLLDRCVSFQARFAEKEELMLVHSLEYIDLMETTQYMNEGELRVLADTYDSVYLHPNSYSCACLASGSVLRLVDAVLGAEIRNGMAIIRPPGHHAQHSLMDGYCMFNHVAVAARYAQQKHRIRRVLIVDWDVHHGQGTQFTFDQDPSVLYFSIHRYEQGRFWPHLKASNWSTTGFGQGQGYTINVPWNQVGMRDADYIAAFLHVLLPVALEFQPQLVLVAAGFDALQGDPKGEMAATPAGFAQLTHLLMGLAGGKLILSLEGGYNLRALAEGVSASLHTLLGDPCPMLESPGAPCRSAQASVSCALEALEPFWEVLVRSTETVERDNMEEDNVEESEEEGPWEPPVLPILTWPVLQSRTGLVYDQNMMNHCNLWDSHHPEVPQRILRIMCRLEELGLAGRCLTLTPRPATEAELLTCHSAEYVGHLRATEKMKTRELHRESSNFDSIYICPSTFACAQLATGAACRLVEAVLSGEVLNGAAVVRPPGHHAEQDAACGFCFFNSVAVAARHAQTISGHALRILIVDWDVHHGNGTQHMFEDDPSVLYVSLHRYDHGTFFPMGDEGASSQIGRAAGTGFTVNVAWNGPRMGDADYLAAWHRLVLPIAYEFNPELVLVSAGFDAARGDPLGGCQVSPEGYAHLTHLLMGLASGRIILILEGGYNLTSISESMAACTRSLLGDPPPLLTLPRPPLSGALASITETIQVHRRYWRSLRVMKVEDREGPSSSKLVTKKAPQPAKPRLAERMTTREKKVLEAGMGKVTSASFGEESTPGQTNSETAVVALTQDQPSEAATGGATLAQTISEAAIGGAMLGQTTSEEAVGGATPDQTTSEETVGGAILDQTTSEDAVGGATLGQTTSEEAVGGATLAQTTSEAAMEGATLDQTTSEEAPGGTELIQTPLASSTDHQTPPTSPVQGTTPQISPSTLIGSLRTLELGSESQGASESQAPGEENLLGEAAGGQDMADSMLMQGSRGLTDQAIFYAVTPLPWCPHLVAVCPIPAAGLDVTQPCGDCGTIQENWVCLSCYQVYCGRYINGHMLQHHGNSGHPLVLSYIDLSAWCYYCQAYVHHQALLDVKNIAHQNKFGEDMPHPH
Procedure: To measure the inhibition of HDAC6 activity, purified human HDAC6 (BPS Bioscience; Cat. No. 5006) is incubated with substrate Ac-Arg-Gly-Lys(Ac)-AMC peptide (Bachem Biosciences; Cat. No. I-1925) for 1 hour at 30° C. in the presence of test compounds or vehicle DMSO control. The reaction is stopped with the HDAC inhibitor trichostatin A (Sigma; Cat. No. T8552) and the amount of Arg-Gly-Lys-AMC generated is quantitated by digestion with trypsin (Sigma; Cat. No. T1426) and subsequent measurement of the amount of AMC released using a fluorescent plate reader (Pherastar; BMG Technologies) set at Ex 340 nm and Em 460 nm. Concentration response curves are generated by calculating the fluorescence increase in test compound-treated samples relative to DMSO-treated controls, and percentage inhibition values at a single concentration or enzyme inhibition (IC50) values are determined from those curves. One skilled in the art will appreciate that the values generated either as percentage inhibition at a single concentration or IC50 values are subject to experimental variation.

[3] = Intrinsic Clearance in Microsomes (dog); type: in vitro ADME; details: liver microsomes, pH 7.4, 2 μM test compound, read-out: In Vitro Microsomal Intrinsic Clearance, Dog CL int (converted)
Procedure: as §1, §2, §3, §4, §5, §6

| SMILES | CLint scaled at 2 µM [1] [mL/min/kg] | CLint scaled at 2 µM [2] [mL/min/kg] | inhibition at 0.37 µM (purified human HDAC6) [%] | CLint scaled at 2 µM [3] [mL/min/kg] |
| --- | --- | --- | --- | --- |
| CC1(C(=O)N2CCc3cc(C(=O)NO)ccc3C2)CCNCC1 [Compound I-1, N-hydroxy-2-[(4-methylpiperidin-4-yl)carbonyl]-1,2,3,4-tetrahydroisoquinoline-6-carboxamide] | < 14.2 | < 6.33 | 79.7 | < 7.83 |
| CCN1CCC(C)(C(=O)N2CCc3cc(C(=O)NO)ccc3C2)CC1 [Compound I-2, 2-[(1-ethyl-4-methylpiperidin-4-yl)carbonyl]-N-hydroxy-1,2,3,4-tetrahydroisoquinoline-6-carboxamide] | < 14.2 | < 6.33 | 78.3 | < 7.83 |
| CC1(C(=O)Nc2ccc(CN3CCc4cc(C(=O)NO)ccc4C3)cc2)CCNCC1 [Compound I-4, N-hydroxy-2-(4-{[(4-methylpiperidin-4-yl)carbonyl]amino}benzyl)-1,2,3,4-tetrahydroisoquinoline-6-carboxamide] |  |  | 72.2 |  |

Next, values leading:

| CLint scaled at 2 µM [1] [mL/min/kg] | CLint scaled at 2 µM [2] [mL/min/kg] | inhibition at 0.37 µM (purified human HDAC6) [%] | CLint scaled at 2 µM [3] [mL/min/kg] | SMILES |
| --- | --- | --- | --- | --- |
|  |  | 80.7 |  | O=C(NO)c1ccc2c(c1)CCN(Cc1ccc(C3CCNCC3)cc1)C2 [Compound I-3, N-hydroxy-2-(4-piperidin-4-ylbenzyl)-1,2,3,4-tetrahydroisoquinoline-6-carboxamide] |
|  |  | 46.2 |  | CC(C)(C)OC(=O)N1CCC(c2ccc(CN3CCc4cc(C(=O)NO)ccc4C3)cc2)CC1 [Compound I-5, tert-butyl 4-(4-{[6-[(hydroxyamino)carbonyl]-3,4-dihydroisoquinolin-2(1H)-yl]methyl}phenyl)piperidine-1-carboxylate] |
|  |  | 61 |  | CC(C)(C)OC(=O)N1CCC(C)(C(=O)Nc2ccc(CN3CCc4cc(C(=O)NO)ccc4C3)cc2)CC1 [Compound I-6, tert-butyl 4-{[(4-{[6-[(hydroxyamino)carbonyl]-3,4-dihydroisoquinolin-2(1H)-yl]methyl}phenyl)amino]carbonyl}-4-methylpiperidine-1-carboxylate] |
| 46.7 | < 6.33 | 88.8 | 31.7 | CC(C)(C)OC(=O)N1CCC(C)(C(=O)N2CCc3cc(C(=O)NO)ccc3C2)CC1 [Compound I-13, tert-butyl 4-{[6-[(hydroxyamino)carbonyl]-3,4-dihydroisoquinolin-2(1H)-yl]carbonyl}-4-methylpiperidine-1-carboxylate] |
